Measured values as given in ChEMBL document CHEMBL4808179 (Bioorg Med Chem Lett, 2021).
Converted amounts (≈) assume the structure as drawn.

How the values were obtained:
[1] = system: Staphylococcus aureus; assay: Antibacterial activity against methicillin-resistant Staphylococcus aureus USA300 assessed as bacterial growth inhibition; format: functional
[2] = system: Enterococcus faecium; assay: Potency index, ratio of Vancomycin MIC to test compound MIC for antibacterial activity against vancomycin resistant Enterococcus faecium Van A HS-06188 assessed as inhibition of bacterial growth; format: functional
[3] = system: Staphylococcus aureus; assay: Potency index, ratio of Vancomycin MIC to test compound MIC for antibacterial activity against vancomycin-intermediate Staphylococcus aureus Mu50 assessed as bacterial growth inhibition; format: functional
[4] = system: Enterococcus faecium; assay: Antibacterial activity against vancomycin resistant Enterococcus faecium Van M HS-08267 assessed as inhibition of bacterial growth; format: functional
[5] = system: Enterococcus faecium; assay: Antibacterial activity against vancomycin resistant Enterococcus faecium Van B V(R) assessed as inhibition of bacterial growth; format: functional
[6] = system: Staphylococcus aureus; assay: Antibacterial activity against vancomycin-intermediate Staphylococcus aureus Mu50 assessed as bacterial growth inhibition; format: functional
[7] = system: Enterococcus faecium; assay: Antibacterial activity against vancomycin resistant Enterococcus faecium Van M HS-0847 assessed as inhibition of bacterial growth; format: functional
[8] = system: Escherichia coli; assay: Antibacterial activity against Escherichia coli AB1157 assessed as bacterial growth inhibition; format: functional
[9] = system: Staphylococcus aureus; assay: Antibacterial activity against methicillin-susceptible Staphylococcus aureus Newman assessed as bacterial growth inhibition; format: functional
[10] = system: Staphylococcus aureus; assay: Potency index, ratio of Vancomycin MIC to test compound MIC for antibacterial activity against methicillin-susceptible Staphylococcus aureus Newman assessed as bacterial growth inhibition; format: functional
[11] = system: Enterococcus faecium; assay: Antibacterial activity against vancomycin resistant Enterococcus faecium Van A HS-0649 assessed as inhibition of bacterial growth; format: functional
[12] = system: Enterococcus faecium; assay: Potency index, ratio of Vancomycin MIC to test compound MIC for antibacterial activity against vancomycin resistant Enterococcus faecium Van M HS-0847 assessed as inhibition of bacterial growth; format: functional
[13] = system: Enterococcus faecium; assay: Potency index, ratio of Vancomycin MIC to test compound MIC for antibacterial activity against vancomycin resistant Enterococcus faecium Van M HS-08267 assessed as inhibition of bacterial growth; format: functional
[14] = system: Staphylococcus aureus; assay: Antibacterial activity against methicillin-resistant Staphylococcus aureus HS-663 assessed as bacterial growth inhibition; format: functional
[15] = system: Acinetobacter baumannii; assay: Antibacterial activity against Acinetobacter baumannii assessed as bacterial growth inhibition; format: functional
[16] = system: Enterococcus faecium; assay: Potency index, ratio of Vancomycin MIC to test compound MIC for antibacterial activity against vancomycin resistant Enterococcus faecium Van B V(R) assessed as inhibition of bacterial growth; format: functional
[17] = system: Enterococcus faecium; assay: Antibacterial activity against vancomycin resistant Enterococcus faecium Van A HS-06188 assessed as inhibition of bacterial growth; format: functional
[18] = system: L02; assay: Cytotoxicity against human L02 cells assessed as reduction in cell viability < 6.25 uM; format: cell-based
[19] = system: HEK-293T; assay: Cytotoxicity against human HEK293T cells assessed as reduction in cell viability upto 25 uM; format: cell-based

SMILES: CN[C@H](CC(C)C)C(=O)N[C@H]1C(=O)N[C@@H](CC(N)=O)C(=O)N[C@H]2C(=O)N[C@H]3C(=O)N[C@H](C(=O)N[C@H](C(=O)NNCc4ccc(-c5ccccc5)cc4)c4cc(O)cc(O)c4-c4cc3ccc4O)[C@H](O)c3ccc(c(Cl)c3)Oc3cc2cc(c3O[C@@H]2O[C@H](CO)[C@@H](O)[C@H](O)[C@H]2O[C@H]2C[C@](C)(N)[C@H](O)[C@H](C)O2)Oc2ccc(cc2Cl)[C@H]1O
- MIC [1]: 0.5 µg/mL (≈ 0.307 µM)
- Ratio [2]: 8
- Ratio [3]: 2
- MIC [4]: 4 µg/mL (≈ 2.45 µM)
- MIC [5]: 4 µg/mL (≈ 2.45 µM)
- MIC [6]: 1 µg/mL (≈ 0.614 µM)
- MIC [7]: 8 µg/mL (≈ 4.91 µM)
- MIC [8]: 64 µg/mL (≈ 39.3 µM)
- MIC [9]: ≤ 0.0625 µg/mL
- Ratio [10]: 32
- MIC [11]: 8 µg/mL (≈ 4.91 µM)
- Ratio [12]: 8
- Ratio [13]: 8
- MIC [14]: < 0.0625 µg/mL
- MIC [15]: 64 µg/mL (≈ 39.3 µM)
- Ratio [16]: 8
- MIC [17]: 8 µg/mL (≈ 4.91 µM)

SMILES: CN[C@H](CC(C)C)C(=O)N[C@H]1C(=O)N[C@@H](CC(N)=O)C(=O)N[C@H]2C(=O)N[C@H]3C(=O)N[C@H](C(=O)N[C@H](C(=O)N/N=C/c4ccc(-c5ccc(Cl)cc5)cc4)c4cc(O)cc(O)c4-c4cc3ccc4O)[C@H](O)c3ccc(c(Cl)c3)Oc3cc2cc(c3O[C@@H]2O[C@H](CO)[C@@H](O)[C@H](O)[C@H]2O[C@H]2C[C@](C)(N)[C@H](O)[C@H](C)O2)Oc2ccc(cc2Cl)[C@H]1O
- MIC [1]: 0.5 µg/mL (≈ 0.301 µM)
- Ratio [2]: 8
- Ratio [3]: 2
- MIC [4]: 4 µg/mL (≈ 2.41 µM)
- MIC [5]: 8 µg/mL (≈ 4.81 µM)
- MIC [6]: 2 µg/mL (≈ 1.2 µM)
- MIC [7]: 4 µg/mL (≈ 2.41 µM)
- MIC [8]: 128 µg/mL (≈ 77 µM)
- MIC [9]: 0.5 µg/mL (≈ 0.301 µM)
- Ratio [10]: 4
- MIC [11]: 4 µg/mL (≈ 2.41 µM)
- Ratio [12]: 8
- Ratio [13]: 8
- MIC [14]: 0.0625 µg/mL (≈ 0.0376 µM)
- MIC [15]: > 128 µg/mL
- Ratio [16]: 8
- MIC [17]: 16 µg/mL (≈ 9.63 µM)

SMILES: CN[C@H](CC(C)C)C(=O)N[C@H]1C(=O)N[C@@H](CC(N)=O)C(=O)N[C@H]2C(=O)N[C@H]3C(=O)N[C@H](C(=O)N[C@H](C(=O)NNCc4ccc(-c5ccc(Cl)cc5)cc4)c4cc(O)cc(O)c4-c4cc3ccc4O)[C@H](O)c3ccc(c(Cl)c3)Oc3cc2cc(c3O[C@@H]2O[C@H](CO)[C@@H](O)[C@H](O)[C@H]2O[C@H]2C[C@](C)(N)[C@H](O)[C@H](C)O2)Oc2ccc(cc2Cl)[C@H]1O
- MIC [1]: 1 µg/mL (≈ 0.601 µM)
- Ratio [2]: 8
- Activity [18]: Toxic
- Ratio [3]: 2
- MIC [4]: 4 µg/mL (≈ 2.4 µM)
- MIC [5]: 4 µg/mL (≈ 2.4 µM)
- MIC [6]: 4 µg/mL (≈ 2.4 µM)
- MIC [7]: 8 µg/mL (≈ 4.81 µM)
- MIC [8]: 128 µg/mL (≈ 76.9 µM)
- MIC [9]: ≤ 0.0625 µg/mL
- Ratio [10]: 32
- MIC [11]: 16 µg/mL (≈ 9.62 µM)
- Ratio [12]: 8
- Activity [19]: Non-Toxic
- Ratio [13]: 8
- MIC [14]: 0.0625 µg/mL (≈ 0.0376 µM)
- MIC [15]: 128 µg/mL (≈ 76.9 µM)
- Ratio [16]: 8
- MIC [17]: 8 µg/mL (≈ 4.81 µM)
